Data set [1] concerns bicistronic HCV replicon (replicon RNA, GenBank Accession No. AJ242654). The data set can be described thus: HCV Replicon Assay. Type of data set: cell-based. The settings on record: Hepatitis C virus, 72 h, read-out: Replicon IC50. Background: In antiviral work, replicon cells carry a viral genome segment that copies itself.

pIC50: −log10 of the molar value.

As a reminder, the pIC50 is −log10 of the IC50, conventionally taken in molar units. For orientation: melting point means the temperature, or range, at which the solid turns liquid.

On to `N#Cc1c(-c2ccc(S(=O)(=O)NC(CF)CF)cn2)n(C2CCCC2)c2ccc(F)cc12` [compound 38, 6-(3-cyano-1-cyclopentyl-5-fluoro-1H-indol-2-yl)-N-(1,3-difluoropropan-2-yl)pyridine-3-sulfonamide], for which the melting point fell in the range of 171 to 172 °C. Moreover, the pIC50 in data set [1] is over 6.30.

Take `C[C@H](NS(=O)(=O)c1cnc(-c2c(C#N)c3cc(F)ccc3n2C2CCCCC2)nc1)C(F)(F)F` [compound 393, 2-(3-cyano-1-cyclohexyl-5-fluoro-1H-indol-2-yl)-N-[(2S)-1,1,1-trifluoropropan-2-yl]pyrimidine-5-sulfonamide]: the melting point was in the range of 236 to 238 °C. The pIC50 in data set [1] was over 6.30.

`CCc1cc2c(cc1F)c(C#N)c(-c1cc(C)c(S(=O)(=O)N[C@H](C)C(F)(F)F)cn1)n2-c1ccccn1` [compound 891, 6-[3-cyano-6-ethyl-5-fluoro-1-(pyridin-2-yl)-1H-indol-2-yl]-4-methyl-N-[(2R)-1,1,1-trifluoropropan-2-yl]pyridine-3-sulfonamide] registered a melting point of 178 to 183 °C. The negative logarithm of the IC50 (pIC50) in data set [1] was over 6.30.

As to `CC(C)NS(=O)(=O)c1cnc(-c2c(C#N)c3ccc(F)cc3n2CC2CC2)nc1` [compound 139, 2-[3-cyano-1-(cyclopropylmethyl)-6-fluoro-1H-indol-2-yl]-N-(propan-2-yl)pyrimidine-5-sulfonamide], the melting point lay in the range of 218 to 219 °C. In addition, in data set [1], the negative-log IC50 (pIC50) was 5.70 to 6.30.

As for `N#Cc1c(-c2ccc(S(=O)(=O)NC(CF)CF)cn2)n(C2CCCC2)c2cc(CC(F)F)ccc12` [compound 593, 6-[3-cyano-1-cyclopentyl-6-(2,2-difluoroethyl)-1H-indol-2-yl]-N-(1,3-difluoropropan-2-yl)pyridine-3-sulfonamide], the melting point is 178 to 184 °C. The pIC50 in data set [1] is over 6.30.

Turning to `CCc1cc2c(cc1F)c(C#N)c(-c1ncc(S(=O)(=O)NC(CF)CF)cn1)n2C1CCCC1` [compound 638, 2-(3-cyano-1-cyclopentyl-6-ethyl-5-fluoro-1H-indol-2-yl)-N-(1,3-difluoropropan-2-yl)pyrimidine-5-sulfonamide], the melting point lay within 184 to 185 °C. The negative logarithm of the IC50 (pIC50) in data set [1] was over 6.30.

Consider `N#Cc1c(-c2ncc(S(=O)(=O)NC(CF)CF)cn2)n(C2CCCCC2)c2ccc(F)cc12` [compound 527, 2-(3-cyano-1-cyclohexyl-5-fluoro-1H-indol-2-yl)-N-(1,3-difluoropropan-2-yl)pyrimidine-5-sulfonamide], for which the melting point lay in the range of 250 to 253 °C. In addition, in data set [1], the pIC50 is over 6.30.

Regarding `CC(C)n1c(-c2ccc(S(=O)(=O)NC3CCC3)cn2)c(C#N)c2ccc(OC(F)F)cc21` [compound 2, 6-[3-cyano-6-(difluoromethoxy)-1-(propan-2-yl)-1H-indol-2-yl]-N-cyclobutylpyridine-3-sulfonamide], the melting point lay within 130 to 132 °C. Further, the pIC50 in data set [1] is over 6.30.

Compound `Cc1cc(F)c2c(C#N)c(-c3ccc(S(=O)(=O)NC(C)(C)C(F)(F)F)cn3)n(C3CCCC3)c2c1` [compound 626, 6-(3-cyano-1-cyclopentyl-4-fluoro-6-methyl-1H-indol-2-yl)-N-(1,1,1-trifluoro-2-methylpropan-2-yl)pyridine-3-sulfonamide] had a melting point of 218 to 223 °C. For the same compound, the pIC50 in data set [1] was over 6.30.

`Cc1cc2c(cc1F)c(C(N)=O)c(-c1ccc(S(=O)(=O)NC(C)(C)C)cn1)n2C1CCCCC1` [compound 1115, 2-[5-(tert-butylsulfamoyl)pyridin-2-yl]-1-cyclohexyl-5-fluoro-6-methyl-1H-indole-3-carboxamide] displayed a melting point of 274.5 to 275.6 °C. The pIC50 in data set [1] is over 6.30.

As for `N#Cc1c(-c2ccc(S(=O)(=O)NC(CF)CF)cn2)n(C2CCC2)c2ccc(OC(F)(F)F)cc12` [compound 25, 6-[3-cyano-1-cyclobutyl-5-(trifluoromethoxy)-1H-indol-2-yl]-N-(1,3-difluoropropan-2-yl)pyridine-3-sulfonamide], the melting point fell in the range of 179 to 182 °C. The pIC50 in data set [1] was 5.70 to 6.30.
